Experimental data from US20260297060A1, “COMPOUNDS FOR THE DEGRADATION OF MUTANT BRAF” (C4 THERAPEUTICS, INC., priority 2023, published 2026).
Read-outs that look alike come from different tables or passages of the source.

Target: T1, BRAF V600E (Homo sapiens, UniProt P15056+Q96SW2, V600E)
T1 construct: knock-in of the HiBiT tag to the endogenous BRAF V600E locus; host or cells: A375.10 (A375 clonal line, CRISPR HiBiT knock-in at the endogenous BRAF V600E locus)
Test: BRAF V600E HiBiT Degradation Assay
Type: cell-based
How it was run: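 Endogenous HiBiT knock-in on BRAF V600E in A375 cells (clone A375.10); 11-point half-log series, top 10 μM, 2, 6 or 24 h at 37° C. Lytic HiBiT luminescence, background-subtracted, normalized to DMSO; 4-parameter fit gives DC50, Emax (residual protein) and IP (inflection point).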

[1] = A375.10 cells, BRAF V600E, 2 hours, inflection point, read-out: HiBiT-Degradation A375.10 BRAF 2 hours IP
[2] = A375.10 cells, BRAF V600E, 2 hours, read-out: HiBiT-Degradation A375.10 BRAF 2 hours DC50
[3] = A375.10 cells, BRAF V600E, 6 hours, inflection point, read-out: HiBiT-Degradation A375.10 BRAF 6 hours IP
[4] = A375.10 cells, BRAF V600E, 6 hours, read-out: HiBiT-Degradation A375.10 BRAF 6 hours DC50
[5] = A375.10 cells, BRAF V600E, 6 hours, residual protein remaining, read-out: HiBiT-Degradation A375.10 BRAF 6 hours Emax
[6] = A375.10 cells, HiBiT, BRAF V600E, 24 hours, read-out: HiBiT-Degradation A375.10 BRAF 24 hours DC50
[7] = A375.10 cells, HiBiT, BRAF V600E, 24 hours, read-out: HiBiT-Degradation A375.10 BRAF 24 hours Emax
[8] = A375.10 cells, HiBiT, BRAF V600E, 24 hours, read-out: HiBiT-Degradation A375.10 BRAF 24 hours IP
[9] = read-out: HiBiT-Degradation A375.10 BRAF 2 hours Emax, A375.10 cells, BRAF V600E, 2 hours, residual protein remaining
[10] = A375.10 cells, BRAF V600E, 2 hours, residual protein remaining, read-out: HiBiT-Degradation A375.10 BRAF 2 hours Emax
[11] = read-out: HiBiT-Degradation A375.10 BRAF 2 hours DC50, A375.10 cells, BRAF V600E, 2 hours
[12] = read-out: HiBiT-Degradation A375.10 BRAF 2 hours IP, A375.10 cells, BRAF V600E, 2 hours, inflection point

T1 sequence (P15056 whole entry V600E): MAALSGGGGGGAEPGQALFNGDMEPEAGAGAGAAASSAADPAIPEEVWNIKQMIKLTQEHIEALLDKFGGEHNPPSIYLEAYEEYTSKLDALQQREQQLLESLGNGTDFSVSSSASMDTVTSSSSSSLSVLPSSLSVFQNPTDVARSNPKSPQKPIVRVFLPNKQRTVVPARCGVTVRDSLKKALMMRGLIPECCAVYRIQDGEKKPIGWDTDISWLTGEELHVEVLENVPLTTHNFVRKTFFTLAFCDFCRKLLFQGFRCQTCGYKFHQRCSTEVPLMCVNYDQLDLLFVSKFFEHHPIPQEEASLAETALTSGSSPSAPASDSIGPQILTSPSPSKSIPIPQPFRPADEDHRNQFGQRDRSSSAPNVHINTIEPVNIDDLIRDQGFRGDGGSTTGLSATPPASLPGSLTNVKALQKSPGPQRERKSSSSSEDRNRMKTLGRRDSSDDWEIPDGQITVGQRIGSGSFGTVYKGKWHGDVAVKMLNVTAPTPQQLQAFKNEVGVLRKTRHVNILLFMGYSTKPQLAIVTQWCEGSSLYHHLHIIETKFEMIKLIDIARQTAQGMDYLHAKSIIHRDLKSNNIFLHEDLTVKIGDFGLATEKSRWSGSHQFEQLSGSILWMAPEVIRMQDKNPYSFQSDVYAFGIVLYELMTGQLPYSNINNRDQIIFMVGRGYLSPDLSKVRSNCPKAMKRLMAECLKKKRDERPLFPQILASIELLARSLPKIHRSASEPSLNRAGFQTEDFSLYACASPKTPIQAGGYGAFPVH
T1 sequence (Q96SW2 whole entry): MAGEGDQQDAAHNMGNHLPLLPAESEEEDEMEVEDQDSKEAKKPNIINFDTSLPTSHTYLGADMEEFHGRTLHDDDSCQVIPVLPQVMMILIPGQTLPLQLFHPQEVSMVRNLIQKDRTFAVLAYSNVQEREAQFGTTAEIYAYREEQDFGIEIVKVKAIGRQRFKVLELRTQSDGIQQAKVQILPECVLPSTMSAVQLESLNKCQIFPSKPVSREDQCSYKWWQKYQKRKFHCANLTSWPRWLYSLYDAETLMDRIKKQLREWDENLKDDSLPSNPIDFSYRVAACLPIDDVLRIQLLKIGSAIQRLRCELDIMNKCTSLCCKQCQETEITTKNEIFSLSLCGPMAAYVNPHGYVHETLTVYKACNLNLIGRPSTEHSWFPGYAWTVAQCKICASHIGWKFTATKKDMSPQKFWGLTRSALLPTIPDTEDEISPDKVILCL
T1 sequence (Q16531 whole entry partner): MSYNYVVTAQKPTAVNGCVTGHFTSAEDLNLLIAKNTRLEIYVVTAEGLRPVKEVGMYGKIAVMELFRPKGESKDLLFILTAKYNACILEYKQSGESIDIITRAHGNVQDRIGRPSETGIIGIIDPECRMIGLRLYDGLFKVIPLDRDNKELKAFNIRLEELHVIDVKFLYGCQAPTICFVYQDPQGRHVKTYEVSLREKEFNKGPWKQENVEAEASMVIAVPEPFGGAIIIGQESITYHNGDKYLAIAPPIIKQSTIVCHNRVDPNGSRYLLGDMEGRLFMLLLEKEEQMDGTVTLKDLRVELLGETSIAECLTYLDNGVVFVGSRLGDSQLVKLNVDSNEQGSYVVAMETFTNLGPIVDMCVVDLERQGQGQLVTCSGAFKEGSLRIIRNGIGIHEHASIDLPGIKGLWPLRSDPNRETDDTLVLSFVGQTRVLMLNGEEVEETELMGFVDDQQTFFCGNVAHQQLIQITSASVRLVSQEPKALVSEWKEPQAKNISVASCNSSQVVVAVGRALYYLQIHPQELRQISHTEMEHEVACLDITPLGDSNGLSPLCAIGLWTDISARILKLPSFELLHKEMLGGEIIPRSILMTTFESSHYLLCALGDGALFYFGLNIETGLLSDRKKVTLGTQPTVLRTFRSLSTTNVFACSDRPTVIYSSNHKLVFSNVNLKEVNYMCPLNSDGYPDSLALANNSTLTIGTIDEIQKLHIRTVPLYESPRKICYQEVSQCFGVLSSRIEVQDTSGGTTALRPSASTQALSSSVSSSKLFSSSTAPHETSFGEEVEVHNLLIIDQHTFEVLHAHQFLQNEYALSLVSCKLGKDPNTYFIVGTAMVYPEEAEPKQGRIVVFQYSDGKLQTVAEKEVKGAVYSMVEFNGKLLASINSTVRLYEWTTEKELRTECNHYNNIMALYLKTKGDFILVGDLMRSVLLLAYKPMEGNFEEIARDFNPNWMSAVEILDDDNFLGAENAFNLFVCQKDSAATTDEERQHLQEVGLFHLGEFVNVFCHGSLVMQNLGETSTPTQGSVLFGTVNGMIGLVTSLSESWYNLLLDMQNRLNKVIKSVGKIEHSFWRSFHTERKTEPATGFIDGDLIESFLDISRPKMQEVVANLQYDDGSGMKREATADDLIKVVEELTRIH

| SMILES | DC50 [1] | DC50 [2] | DC50 [3] | DC50 [4] | Emax [5] | DC50 [6] | Emax [7] | DC50 [8] | Emax [9] | Emax [10] | HiBiT-Degradation A375.10 BRAF 6 hours Emax (A375.10 cells, BRAF V600E, 6 hours, residual protein remaining) | HiBiT-Degradation A375.10 BRAF 24 hours Emax (A375.10 cells, HiBiT, BRAF V600E, 24 hours) | DC50 [11] | DC50 [12] | DC50 (read-out: HiBiT-Degradation A375.10 BRAF 6 hours DC50, A375.10 cells, BRAF V600E, 6 hours) | DC50 (read-out: HiBiT-Degradation A375.10 BRAF 6 hours IP, A375.10 cells, BRAF V600E, 6 hours, inflection point) | DC50 (read-out: HiBiT-Degradation A375.10 BRAF 24 hours DC50, A375.10 cells, HiBiT, BRAF V600E, 24 hours) | DC50 (read-out: HiBiT-Degradation A375.10 BRAF 24 hours IP, A375.10 cells, HiBiT, BRAF V600E, 24 hours) |
| --- | --- | --- | --- | --- | --- | --- | --- | --- | --- | --- | --- | --- | --- | --- | --- | --- | --- | --- |
| CCN(C)S(=O)(=O)Nc1ccc(F)c(Oc2ccc3ncn([C@H]4COC5(CCN(C6CCC(c7cc8c(cc7F)c(N7CCC(=O)NC7=O)nn8C)CC6)CC5)C4)c(=O)c3c2F)c1C#N (single isomer, unassigned) [Compound 41] | < 1 µM | < 1 µM | < 1 µM | < 1 µM | < 50% | < 1 µM | < 50% | < 1 µM | < 50% |  |  |  |  |  |  |  |  |  |
| CCN(C)S(=O)(=O)Nc1ccc(F)c(Oc2ccc3ncn([C@H]4COC5(CCN(C6CCC(c7cc8c(cc7F)c(N7CCC(=O)NC7=O)nn8C)CC6F)CC5)C4)c(=O)c3c2)c1C#N (single isomer, unassigned) [Compound 28] | < 1 µM | < 1 µM | < 1 µM | < 1 µM | < 50% | < 1 µM | < 50% | < 1 µM | < 50% |  |  |  |  |  |  |  |  |  |
| CCN(C)S(=O)(=O)Nc1ccc(F)c(Oc2ccc3ncn(C4CC5(CCN(C6CCC(c7cc8c(cc7F)c(N7CCC(=O)NC7=O)nn8C)CC6)CC5)C4)c(=O)c3c2)c1C#N (single isomer, unassigned) [Compound 8, 6-[2-cyano-3-[[ethyl(methyl)sulfamoyl]amino]-6-fluoro-phenoxy]-3-[7-[4-[3-(2,4-dioxohexahydropyrimidin-1-yl)-5-fluoro-1-methyl-indazol-6-yl]cyclohexyl]-7-azaspiro[3.5]nonan-2-yl]-4-oxo-quinazoline] | < 1 µM | < 1 µM | < 1 µM | < 1 µM |  | < 1 µM |  | < 1 µM |  | < 50% | *** (<=50%) | *** (<=50%) |  |  |  |  |  |  |
| CCN(C)S(=O)(=O)Nc1ccc(F)c(Oc2ccc3ncn(C4CC5(CCN(C6CCC(c7cc8c(cc7F)c(N7CCC(=O)NC7=O)nn8C)CC6F)CC5)C4)c(=O)c3c2)c1C#N (single isomer, unassigned) [Compound 83, 6-[2-cyano-3-[[ethyl(methyl)sulfamoyl]amino]-6-fluoro-phenoxy]-3-[7-[4-[3-(2,4-dioxohexahydropyrimidin-1-yl)-5-fluoro-1-methyl-indazol-6-yl]-2-fluoro-cyclohexyl]-7-azaspiro[3.5]nonan-2-yl]-4-oxo-quinazoline] | < 1 µM | < 1 µM | < 1 µM | < 1 µM | < 50% | < 1 µM | < 50% | < 1 µM | < 50% |  |  |  |  |  |  |  |  |  |
| CCN(C)S(=O)(=O)Nc1ccc(F)c(Oc2ccc3ncn([C@H]4COC5(CCC(N6CCN(c7ccc(NC8CCC(=O)NC8=O)cc7F)CC6)CC5)C4)c(=O)c3c2)c1C#N (stereo partly drawn) [Compound 40, 6-[2-cyano-3-[[ethyl(methyl)sulfamoyl]amino]-6-fluoro-phenoxy]-3-[(3R)-8-[4-[4-[(2,6-dioxo-3-piperidyl)amino]-2-fluoro-phenyl]piperazin-1-yl]-1-oxaspiro[4.5]decan-3-yl]-4-oxo-quinazoline] |  |  |  |  | < 50% |  | < 50% |  |  | 50 to 90% |  |  | 1 to 10 µM | < 1 µM | < 1 µM | < 1 µM | < 1 µM | < 1 µM |
| CCN(C)S(=O)(=O)Nc1ccc(F)c(Nc2ccc3ncn([C@@H]4COC5(CCN(C6CCC(c7ccc(NC8CCC(=O)NC8=O)cc7F)CC6)CC5)C4)c(=O)c3c2F)c1C#N (single isomer, unassigned) [Compound 90] | < 1 µM | < 1 µM | < 1 µM | < 1 µM | < 50% | < 1 µM | < 50% | < 1 µM |  | < 50% |  |  |  |  |  |  |  |  |
| CN(CCO)S(=O)(=O)Nc1ccc(F)c(Oc2ccc3ncn([C@H]4COC5(CCN(C6CCC(c7cc8c(cc7F)c(N7CCC(=O)NC7=O)nn8C)CC6)CC5)C4)c(=O)c3c2)c1C#N (single isomer, unassigned) [Compound 73] | < 1 µM | < 1 µM | < 1 µM | < 1 µM | < 50% | < 1 µM | < 50% | < 1 µM |  | < 50% |  |  |  |  |  |  |  |  |
| Cn1nc(N2CCC(=O)NC2=O)c2cc(F)c(N3CC4(CC(N5CCC6(CC5)CC(n5cnc7ccc(Oc8c(F)ccc(NS(=O)(=O)C9CCC9)c8C#N)cc7c5=O)C6)C4)C3)cc21 [Compound 259, N-[2-cyano-3-[3-[7-[2-[3-(2,4-dioxohexahydropyrimidin-1-yl)-5-fluoro-1-methyl-indazol-6-yl]-2-azaspiro[3.3]heptan-6-yl]-7-azaspiro[3.5]nonan-2-yl]-4-oxo-quinazolin-6-yl]oxy-4-fluoro-phenyl]cyclobutanesulfonamide] |  |  |  |  |  |  |  |  | < 50% |  |  |  | < 1 µM | < 1 µM |  |  |  |  |
| CO[C@H]1CCN(S(=O)(=O)Nc2ccc(F)c(Oc3ccc4ncn(C5CC6(CCN(C7CCC(c8cc9c(cc8F)c(N8CCC(=O)NC8=O)nn9C)CC7)CC6)C5)c(=O)c4c3)c2C#N)C1 (single isomer, unassigned) [Compound 103] | < 1 µM | < 1 µM | < 1 µM | < 1 µM | < 50% | < 1 µM | < 50% | < 1 µM |  | < 50% |  |  |  |  |  |  |  |  |
| CCN(C)S(=O)(=O)Nc1ccc(F)c(Oc2ccc3ncn(C4CC5(CCN(C6CCN(c7cc8c(cc7F)c(N7CCC(=O)NC7=O)nn8C)CC6)CC5)C4)c(=O)c3c2)c1C#N [Compound 156, 6-[2-cyano-3-[[ethyl(methyl)sulfamoyl]amino]-6-fluoro-phenoxy]-3-[7-[1-[3-(2,4-dioxohexahydropyrimidin-1-yl)-5-fluoro-1-methyl-indazol-6-yl]-4-piperidyl]-7-azaspiro[3.5]nonan-2-yl]-4-oxo-quinazoline] | < 1 µM | < 1 µM | < 1 µM | < 1 µM | < 50% | < 1 µM | < 50% | < 1 µM | < 50% |  |  |  |  |  |  |  |  |  |
| CN(CCO)S(=O)(=O)Nc1ccc(F)c(Oc2ccc3ncn(C4CC5(CCN(C6CCC(c7ccc(NC8CCC(=O)NC8=O)cc7F)CC6)CC5)C4)c(=O)c3c2)c1C#N (single isomer, unassigned) [Compound 79, 6-[2-cyano-6-fluoro-3-[[2-hydroxyethyl(methyl)sulfamoyl]amino]phenoxy]-3-[7-[4-[4-[(2,6-dioxo-3-piperidyl)amino]-2-fluoro-phenyl]cyclohexyl]-7-azaspiro[3.5]nonan-2-yl]-4-oxo-quinazoline] | < 1 µM | < 1 µM | < 1 µM | < 1 µM | < 50% | < 1 µM | < 50% | < 1 µM |  | < 50% |  |  |  |  |  |  |  |  |
| CCN(C)S(=O)(=O)Nc1ccc(F)c(Oc2ccc3ncc([C@@H]4COC5(CCN(C6CCC(c7ccc(NC8CCC(=O)NC8=O)cc7F)CC6)CC5)C4)nc3c2)c1C#N (single isomer, unassigned) [Compound 60] | < 1 µM | < 1 µM | < 1 µM | < 1 µM | < 50% | < 1 µM | < 50% | < 1 µM | < 50% |  |  |  |  |  |  |  |  |  |
| CCN(C)S(=O)(=O)Nc1ccc(F)c(Oc2ccc3ncn([C@H]4COC5(CCN(C6CC7(C6)CN(c6cc8c(cc6F)c(N6CCC(=O)NC6=O)nn8C)C7)CC5)C4)c(=O)c3c2)c1C#N [Compound 26, (3R)-3-[6-[2-cyano-3-[[ethyl(methyl)sulfamoyl]amino]-6-fluoro-phenoxy]-4-oxo-quinazolin-3-yl]-8-[2-[3-(2,4-dioxohexahydropyrimidin-1-yl)-5-fluoro-1-methyl-indazol-6-yl]-2-azaspiro[3.3]heptan-6-yl]-1-oxa-8-azaspiro[4.5]decane] | < 1 µM | < 1 µM | < 1 µM | < 1 µM | < 50% | < 1 µM | < 50% | < 1 µM | < 50% |  |  |  |  |  |  |  |  |  |
